Assay [1] concerns the target Proto-oncogene tyrosine-protein kinase Src (Homo sapiens) (UniProt P12931). Nature of the assay: Inhibition of recombinant human c-Src.
In assay [2] the test system is HL-60. Nature of the assay: Growth inhibition of human HL60 cells after 96 hrs. Type of assay: functional, cell-based.
The species named for assay [3] is Mus musculus. Nature of the assay: Inhibition of p210Bcr-Abl phosphorylation in gleevec-sensitive mouse 32D cells at 10 uM.
The subject of assay [4] is HL-60. Nature of the assay: Growth inhibition of human HL60 cells upto 100 uM after 96 hrs. Type of assay: functional, cell-based.
For assay [5], the species on record is Mus musculus. Nature of the assay: Inhibition of p210Bcr-Abl phosphorylation in gleevec-resistant mouse 32D cells at 10 uM.
Assay [6] concerns HL-60. Nature of the assay: Effect on zymosan-stimulated human HL60 cells assessed as recovery of ROS metabolism. Type of assay: functional, cell-based.
Assay [7] relates to HL-60. Nature of the assay: Effect on PMA-stimulated human HL60 cells assessed as recovery of ROS metabolism. Type of assay: functional, cell-based.
Assay [8] in a line: Reduction of clonogenic activity in Bcr-Abl expressing mouse 32D clone cells. Particulars: read-out: LD50.

The text below walks through data of ChEMBL document CHEMBL1142311, “Discovery and SAR of 1,3,4-thiadiazole derivatives as potent Abl tyrosine kinase inhibitors and cytodifferentiating agents” (Bioorg Med Chem Lett, 2008).

The structures appear in SMILES notation. The source made the active and inactive calls. No cut-off for these calls is given here.

Sequence of Proto-oncogene tyrosine-protein kinase Src (Homo sapiens) (P12931 2-536 limits assumed): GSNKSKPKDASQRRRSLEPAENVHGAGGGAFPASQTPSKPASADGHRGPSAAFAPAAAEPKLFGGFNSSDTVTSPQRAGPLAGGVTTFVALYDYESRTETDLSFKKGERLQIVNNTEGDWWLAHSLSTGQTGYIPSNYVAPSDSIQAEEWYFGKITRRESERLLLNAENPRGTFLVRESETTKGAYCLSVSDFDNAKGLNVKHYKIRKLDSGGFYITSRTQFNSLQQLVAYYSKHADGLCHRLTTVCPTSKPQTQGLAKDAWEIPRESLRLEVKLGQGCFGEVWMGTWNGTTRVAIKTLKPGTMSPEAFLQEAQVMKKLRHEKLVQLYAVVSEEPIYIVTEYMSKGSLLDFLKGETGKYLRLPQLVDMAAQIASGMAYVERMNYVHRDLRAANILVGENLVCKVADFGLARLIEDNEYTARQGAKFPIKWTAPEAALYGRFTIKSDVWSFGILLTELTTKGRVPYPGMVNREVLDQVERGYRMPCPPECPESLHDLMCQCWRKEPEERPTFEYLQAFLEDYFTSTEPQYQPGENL

For the molecule `O=C(Nc1nnc(CCc2ccccc2)s1)c1ccc(I)cc1`, the outcome in assay [1] was inactive.

For `O=C(Nc1nnc(SCc2ccc(F)cc2)s1)c1ccc(F)cc1`, the outcome in assay [2], in assay [3], in assay [5], in assay [6] and in assay [7] was Active. Besides, the result in assay [4] was inactive. The CC50 in assay [8] came out at 2200 nM.
